A value given as a limit tells only on which side of the number the result lay.

As a reminder, the MIC80 is an inhibitory concentration at the 80% level, which refers to growth in some studies and to a panel of isolates in others.

The subject of assay [1] is Candida glabrata (ATCC no. 48435). The assay is described as follows: MIC determination by broth microdilution (NCCLS), visual scoring. The assay is classed as cell-based. Conditions: for MIC80: Nakaseomyces glabratus, ATCC48435, read-out: MIC80 C. glabrata; for MIC80 C. glabrata: Table 1, 5-Acyl-2,4,6-pyrimidinetriones, >80% growth inhibition, RPMI, 1% DMSO. Here is the method: The antifungal activity of the 2,4,6-pyrimidinetrione analogs shown in Schemes 2-6 were evaluated in vitro using Candida albicans (ATCC no. 10231) and Candida glabrata (ATCC no 48435). All assays were done in accordance with NCCLS reference documents^29. The results of these screenings are summarized in Tables 1-9 as the minimal inhibitory concentrations that inhibited more than 80% fungal growth as compared to the positive controls in 1% DMSO and RPMI media. All MIC screens were done using a visual scoring method as opposed to spectroscopic methods of analysis, due to the physical properties of many of the compounds altering their absorbance spectra relative to the positive, negative and drug controls.
None of the compounds tested over the course of these studies were soluble in water and DMSO was used to dilute each compound tested. Master stock concentrations of all tested compounds were prepared to ensure that the maximum final concentration of DMSO was 1% or less. Subsequent 2-fold serial dilutions were made using sterile water to a final concentration of 1280-5.00 μg/ml. A final 10-fold dilution of each drug was made by aliquotting 0.1 mL of each drug dilution into 0.9 mL of fungal suspension in RPMI 1640 media with 10 mM HEPES buffer added (see methodology below), giving final concentrations tested in the range of 128-0.5 μg/ml.
(§1) Antifungal susceptibility studies and minimal inhibitory concentrations (MIC) values for Candida albicans (ATCC no. 10231) and Candida glabrata (ATCC no. 48435) were determined by the broth microdilution technique in accordance with NCCLS reference documents. Microdilution panels ranged from 0.5 to 128 μg/mL. All organisms were subcultured on Sabouraud agar and passaged to ensure purity and viability. The initiating inocula were prepared by picking 5-7 isolated colonies ˜1 mm in diameter from freshly prepared YM agar plates. Colonies were resuspended in sterile water, vortexed and the cell density was adjusted spectrophotometrically to the transmittance of a 0.5 McFarland standard at a wavelength of 530 nm, to yield a stock suspension of 1×10^6-5×10^6 cells/mL. The stock was allowed to hydrate for 30 minutes at room temperature. A working suspension was then made by diluting the stock 1:50 with RPMI 1640 media containing HEPES buffer. The working suspension was used for all assays. The plates were incubated at 35° C. for 48-72 hours in a humid atmosphere. Growth was scored visually. MIC values are defined as the lowest concentration of agent that prevents any discernible growth, ˜80% reduction of growth, as compared with drug-free control wells. All assays were run in parallel using either fluconazole or amphotericin B at the NCCLS recommended concentrations^29 as a drug control (Sigma-Aldrich).

The subject of assay [2] is Candida albicans (ATCC no. 10231). The description is as above. The format is cell-based. Particulars: for MIC80: Candida albicans, ATCC10231, read-out: MIC80 C. albicans. As for the experimental part:
The antifungal activity of the 2,4,6-pyrimidinetrione analogs shown in Schemes 2-6 were evaluated in vitro using Candida albicans (ATCC no. 10231) and Candida glabrata (ATCC no 48435). All assays were done in accordance with NCCLS reference documents^29.
Master stock concentrations of all tested compounds were prepared to ensure that the maximum final concentration of DMSO was 1% or less. Subsequent 2-fold serial dilutions were made using sterile water to a final concentration of 1280-5.00 μg/ml. A final 10-fold dilution of each drug was made by aliquotting 0.1 mL of each drug dilution into 0.9 mL of fungal suspension in RPMI 1640 media with 10 mM HEPES buffer added (see methodology below), giving final concentrations tested in the range of 128-0.5 μg/ml.
as §1

Where [3] appears, read: Table 1, 5-Acyl-2,4,6-pyrimidinetriones, >80% growth inhibition, RPMI, 1% DMSO.
Where [4] appears, read: Table 9, Benzenesuifonohydrazones of 5-Acylpyrimidinetrione.

As to `O=C1NC(=O)C(C(=O)c2ccccc2)C(=O)N1` [BA1, 5-benzoyl-pyrimidine-2,4,6-trione], the MIC80 in assay [1] and in assay [2] was greater than 125 µg/mL each time. With `CN1C(=O)NC(=O)C(C(=O)c2ccccc2)C1=O` (stereo not shown) [BA2], the “MIC80 C. glabrata” value in assay [1] is recorded as “— (none of the 5-acyl-2,4,6-pyrimidinetriones, 5-alkylated pyrimidinetriones or the 5,5-dialkylated pyrimidinetriones showed antifungal activity through 125 μg/mL)”. For the same compound, in assay [2] (setting [3]), the “MIC80 C. albicans” value was “— (none of the 5-acyl-2,4,6-pyrimidinetriones, 5-alkylated pyrimidinetriones or the 5,5-dialkylated pyrimidinetriones showed antifungal activity through 125 μg/mL)”. Regarding `CN1C(=O)C(C(=O)c2ccccc2)C(=O)N(C)C1=O` [BA3, 5-benzoyl-1,3-dimethylpyrimidine-2,4,6-trione], the MIC80 in assay [1] and in assay [2] was greater than 125 µg/mL each time. As to `O=C1NC(=O)C(C(=O)c2cccc([N+](=O)[O-])c2)C(=O)N1` [BA4], in assay [1], the “MIC80 C. glabrata” value is on record as “— (none of the 5-acyl-2,4,6-pyrimidinetriones, 5-alkylated pyrimidinetriones or the 5,5-dialkylated pyrimidinetriones showed antifungal activity through 125 μg/mL)”. In addition, the “MIC80 C. albicans” value in assay [2] (setting [3]) is on record as “— (none of the 5-acyl-2,4,6-pyrimidinetriones, 5-alkylated pyrimidinetriones or the 5,5-dialkylated pyrimidinetriones showed antifungal activity through 125 μg/mL)”.

Take `CN1C(=O)C(C(=O)c2cccc([N+](=O)[O-])c2)C(=O)N(C)C1=O` [BA5]: the “MIC80 C. glabrata” value in assay [1] was “— (none of the 5-acyl-2,4,6-pyrimidinetriones, 5-alkylated pyrimidinetriones or the 5,5-dialkylated pyrimidinetriones showed antifungal activity through 125 μg/mL)”. Also, in assay [2] (setting [3]), the “MIC80 C. albicans” value is given as “— (none of the 5-acyl-2,4,6-pyrimidinetriones, 5-alkylated pyrimidinetriones or the 5,5-dialkylated pyrimidinetriones showed antifungal activity through 125 μg/mL)”. Regarding `O=C1NC(=O)C(C(=O)c2ccc([N+](=O)[O-])cc2)C(=O)N1` [BA6], the “MIC80 C. glabrata” value in assay [1] is listed as “— (none of the 5-acyl-2,4,6-pyrimidinetriones, 5-alkylated pyrimidinetriones or the 5,5-dialkylated pyrimidinetriones showed antifungal activity through 125 μg/mL)”. The “MIC80 C. albicans” value in assay [2] (setting [3]) is listed as “— (none of the 5-acyl-2,4,6-pyrimidinetriones, 5-alkylated pyrimidinetriones or the 5,5-dialkylated pyrimidinetriones showed antifungal activity through 125 μg/mL)”. For the compound `CN1C(=O)C(C(=O)c2ccc([N+](=O)[O-])cc2)C(=O)N(C)C1=O` [BA7], the “MIC80 C. glabrata” value in assay [1] is reported as “— (none of the 5-acyl-2,4,6-pyrimidinetriones, 5-alkylated pyrimidinetriones or the 5,5-dialkylated pyrimidinetriones showed antifungal activity through 125 μg/mL)”. The “MIC80 C. albicans” value in assay [2] (setting [3]) is listed as “— (none of the 5-acyl-2,4,6-pyrimidinetriones, 5-alkylated pyrimidinetriones or the 5,5-dialkylated pyrimidinetriones showed antifungal activity through 125 μg/mL)”. `O=C1NC(=O)C(C(=O)c2cc([N+](=O)[O-])cc([N+](=O)[O-])c2)C(=O)N1` [BA8]: the “MIC80 C. glabrata” value in assay [1] was “— (none of the 5-acyl-2,4,6-pyrimidinetriones, 5-alkylated pyrimidinetriones or the 5,5-dialkylated pyrimidinetriones showed antifungal activity through 125 μg/mL)”. The “MIC80 C. albicans” value in assay [2] (setting [3]) was “— (none of the 5-acyl-2,4,6-pyrimidinetriones, 5-alkylated pyrimidinetriones or the 5,5-dialkylated pyrimidinetriones showed antifungal activity through 125 μg/mL)”.

Consider `CN1C(=O)C(C(=O)c2cc([N+](=O)[O-])cc([N+](=O)[O-])c2)C(=O)N(C)C1=O` [BA9], for which the “MIC80 C. glabrata” value in assay [1] is reported as “— (none of the 5-acyl-2,4,6-pyrimidinetriones, 5-alkylated pyrimidinetriones or the 5,5-dialkylated pyrimidinetriones showed antifungal activity through 125 μg/mL)”. Besides, the “MIC80 C. albicans” value in assay [2] (setting [3]) is on record as “— (none of the 5-acyl-2,4,6-pyrimidinetriones, 5-alkylated pyrimidinetriones or the 5,5-dialkylated pyrimidinetriones showed antifungal activity through 125 μg/mL)”. As for `O=C1NC(=O)C(C(=O)c2ccc(O)cc2)C(=O)N1` [BA10], in assay [1], the “MIC80 C. glabrata” value is “— (none of the 5-acyl-2,4,6-pyrimidinetriones, 5-alkylated pyrimidinetriones or the 5,5-dialkylated pyrimidinetriones showed antifungal activity through 125 μg/mL)”. For the same compound, the “MIC80 C. albicans” value in assay [2] (setting [3]) is given as “— (none of the 5-acyl-2,4,6-pyrimidinetriones, 5-alkylated pyrimidinetriones or the 5,5-dialkylated pyrimidinetriones showed antifungal activity through 125 μg/mL)”.

`CN1C(=O)C(C(=O)c2ccc(O)cc2)C(=O)N(C)C1=O` [BA11]: the “MIC80 C. glabrata” value in assay [1] is on record as “— (none of the 5-acyl-2,4,6-pyrimidinetriones, 5-alkylated pyrimidinetriones or the 5,5-dialkylated pyrimidinetriones showed antifungal activity through 125 μg/mL)”. Besides, the “MIC80 C. albicans” value in assay [2] (setting [3]) was “— (none of the 5-acyl-2,4,6-pyrimidinetriones, 5-alkylated pyrimidinetriones or the 5,5-dialkylated pyrimidinetriones showed antifungal activity through 125 μg/mL)”. In the case of `CCCCN1C(=O)NC(=O)C(C(=O)c2ccc(O)cc2)C1=O` (stereo not shown) [BA12], the “MIC80 C. glabrata” value in assay [1] is listed as “— (none of the 5-acyl-2,4,6-pyrimidinetriones, 5-alkylated pyrimidinetriones or the 5,5-dialkylated pyrimidinetriones showed antifungal activity through 125 μg/mL)”. Also, in assay [2] (setting [3]), the “MIC80 C. albicans” value is “— (none of the 5-acyl-2,4,6-pyrimidinetriones, 5-alkylated pyrimidinetriones or the 5,5-dialkylated pyrimidinetriones showed antifungal activity through 125 μg/mL)”.

As to `O=C1NC(=O)N(c2ccccc2)C(=O)C1C(=O)c1ccc(O)cc1` (stereo not shown) [BA13], the “MIC80 C. glabrata” value in assay [1] was “— (none of the 5-acyl-2,4,6-pyrimidinetriones, 5-alkylated pyrimidinetriones or the 5,5-dialkylated pyrimidinetriones showed antifungal activity through 125 μg/mL)”. Also, in assay [2] (setting [3]), the “MIC80 C. albicans” value is on record as “— (none of the 5-acyl-2,4,6-pyrimidinetriones, 5-alkylated pyrimidinetriones or the 5,5-dialkylated pyrimidinetriones showed antifungal activity through 125 μg/mL)”.

Consider `COc1ccc(C(=O)C2C(=O)NC(=O)NC2=O)cc1` [BA14], for which the “MIC80 C. glabrata” value in assay [1] is recorded as “— (none of the 5-acyl-2,4,6-pyrimidinetriones, 5-alkylated pyrimidinetriones or the 5,5-dialkylated pyrimidinetriones showed antifungal activity through 125 μg/mL)”. In addition, the “MIC80 C. albicans” value in assay [2] (setting [3]) is listed as “— (none of the 5-acyl-2,4,6-pyrimidinetriones, 5-alkylated pyrimidinetriones or the 5,5-dialkylated pyrimidinetriones showed antifungal activity through 125 μg/mL)”. As for `COc1ccc(C(=O)C2C(=O)N(C)C(=O)N(C)C2=O)cc1` [BA15], in assay [1], the “MIC80 C. glabrata” value is recorded as “— (none of the 5-acyl-2,4,6-pyrimidinetriones, 5-alkylated pyrimidinetriones or the 5,5-dialkylated pyrimidinetriones showed antifungal activity through 125 μg/mL)”. The “MIC80 C. albicans” value in assay [2] (setting [3]) is reported as “— (none of the 5-acyl-2,4,6-pyrimidinetriones, 5-alkylated pyrimidinetriones or the 5,5-dialkylated pyrimidinetriones showed antifungal activity through 125 μg/mL)”. In the case of `CCCCN1C(=O)NC(=O)C(C(=O)c2ccc(OC)cc2)C1=O` (stereo not shown) [BA16], the “MIC80 C. glabrata” value in assay [1] was “— (none of the 5-acyl-2,4,6-pyrimidinetriones, 5-alkylated pyrimidinetriones or the 5,5-dialkylated pyrimidinetriones showed antifungal activity through 125 μg/mL)”. Besides, the “MIC80 C. albicans” value in assay [2] (setting [3]) is “— (none of the 5-acyl-2,4,6-pyrimidinetriones, 5-alkylated pyrimidinetriones or the 5,5-dialkylated pyrimidinetriones showed antifungal activity through 125 μg/mL)”. In the case of `CN1C(=O)C(C(=O)c2cccnc2)C(=O)N(C)C1=O` [BA17], the “MIC80 C. glabrata” value in assay [1] was “— (none of the 5-acyl-2,4,6-pyrimidinetriones, 5-alkylated pyrimidinetriones or the 5,5-dialkylated pyrimidinetriones showed antifungal activity through 125 μg/mL)”. In addition, in assay [2] (setting [3]), the “MIC80 C. albicans” value is “— (none of the 5-acyl-2,4,6-pyrimidinetriones, 5-alkylated pyrimidinetriones or the 5,5-dialkylated pyrimidinetriones showed antifungal activity through 125 μg/mL)”.

Consider `CN1C(=O)C(C=NNS(=O)(=O)c2ccccc2)C(=O)N(C)C1=O` [BA137], for which, in assay [2] (setting [4]), the “MIC80 C. albicans” value is reported as “— (none of the 5-acyl-2,4,6-pyrimidinetriones, 5-alkylated pyrimidinetriones or the 5,5-dialkylated pyrimidinetriones showed antifungal activity through 125 μg/mL)”.

Regarding `C/C(=N\NS(=O)(=O)c1ccccc1)C1C(=O)NC(=O)NC1=O` [BA138], in assay [2] (setting [4]), the “MIC80 C. albicans” value is “— (none of the 5-acyl-2,4,6-pyrimidinetriones, 5-alkylated pyrimidinetriones or the 5,5-dialkylated pyrimidinetriones showed antifungal activity through 125 μg/mL)”. Same read-out and setting: under `C/C(=N\NS(=O)(=O)c1ccccc1)C1C(=O)N(C)C(=O)N(C)C1=O` [BA139] stands “— (none of the 5-acyl-2,4,6-pyrimidinetriones, 5-alkylated pyrimidinetriones or the 5,5-dialkylated pyrimidinetriones showed antifungal activity through 125 μg/mL)”.

(Values after patent US20160235752A1, “COMPOSITIONS, METHODS OF USE, AND METHODS OF TREATMENT” (THE UNIVERSITY OF NEW ORLEANS, priority 2013, published 2016).)
